{"source": "patent US9783524B2", "about": "“Protein tyrosine kinase modulators and methods of use” (BETTA PHARMACEUTICALS CO., LTD., priority 2013, dated 2017)", "key": {"[1]": {"test_system": "EGFR (T790M) (h)", "assay_type": "biochemical, human", "protocol": "(§1) Assay conditions included 10 μM ATP and 100 nM test compounds.\n(§2) All reactions are initiated by the addition of the MgATP mix. After incubation for 40 minutes at room temperature, the reaction is stopped by the addition of 3% phosphoric acid solution. 10 μL of the reaction is then spotted onto a P30 filtermat and washed three times for 5 minutes in 75 mM phosphoric acid and once in methanol prior to drying and scintillation counting. This assay is performed by Millipore. The experiment is carried out in duplicate. The value for the control sample (DMSO) was set to 100%, and the values for the compound-treated samples were expressed as activity relative to the control sample."}, "[2]": {"test_system": "activated and resistant T790M forms of EGFR", "experiment": "In vitro cellular assays, overall statement", "assay_type": "cell-based", "details": "result in words", "protocol": "(§3) Effects of test compounds on in vitro proliferation were measured by MTS cell viability assay."}, "[3]": {"test_system": "EGFR (T790M, L858R) (h)", "assay_type": "biochemical, human", "protocol": "as §1\n(§4) All reactions are initiated by the addition of the MgATP mix. After incubation for 40 minutes at room temperature, the reaction is stopped by the addition of 3% phosphoric acid solution. 10 μL of the reaction is then spotted onto a P30 filtermat and washed three times for 5 minutes in 75 mM phosphoric acid and once in methanol prior to drying and scintillation counting. […] The experiment is carried out in duplicate. The value for the control sample (DMSO) was set to 100%, and the values for the compound-treated samples were expressed as activity relative to the control sample.\n(§5) (specific activity approx. 500 cpm/pmol, concentration as required) and 0.1 μM test compound."}, "[4]": {"test_system": "ALK (h)", "assay_type": "biochemical, human", "details": "0.1 μM test compound, 10 μM ATP; remaining activity relative to DMSO control = 100%", "protocol": "as §1, §2"}, "[5]": {"test_system": "EGFR (L858R) (h)", "assay_type": "biochemical, human", "protocol": "as §1, §4, §5"}, "[6]": {"test_system": "A431 (EGFR WT) cells", "experiment": "Cell proliferation assay (MTS cell viability)", "assay_type": "cell-based", "details": "Homo sapiens, A-431, 72 h, 3 days of exposure", "protocol": "as §3\nA431 cells were maintained in DMEM (Gibco) supplemented with 10% FBS, 100 units/mL penicillin, 100 units/mL streptomycin, and 2 mM glutamine.\n2. Prepare test compounds in each well with a final medium volume of 200 μl;\n3. Incubate for 3 days of exposure;\n4. Prepare reagents following the instructions in the Cell Proliferation Assay kit (Promega);\n5. Change to serum-free medium with a final volume of 100 μl/well. Prepare a set of wells with medium only for background subtraction;\n6. Add 20 μl MTS solution containing PMS to each well (final concentration of MTS will be 0.33 mg/ml);\n7. Incubate 1 to 4 hours at 37° C. in a humidified, 5% CO2 atmosphere.\n8. Record absorbance at 490 nm using VICTOR™X5 plate reader (PerkinElmer).\n(§6) All experimental points were set up in three wells and all experiments were repeated at least three times."}, "[7]": {"test_system": "H1975 (EGFR L858R/T790M) NSCLC cells", "experiment": "Cell proliferation assay (MTS cell viability)", "assay_type": "cell-based", "details": "Homo sapiens, NCI-H1975, 72 h, 3 days of exposure", "protocol": "as §3\n(§7) Prepare test compounds in each well with a final medium volume of 200 μl;\nIncubate for 3 days of exposure;\n(§8) Prepare reagents following the instructions in the Cell Proliferation Assay kit (Promega);\n(§9) Change to serum-free medium with a final volume of 100 μl/well. Prepare a set of wells with medium only for background subtraction;\n(§10) Add 20 μl MTS solution containing PMS to each well (final concentration of MTS will be 0.33 mg/ml);\n(§11) Incubate 1 to 4 hours at 37° C. in a humidified, 5% CO2 atmosphere.\n(§12) Record absorbance at 490 nm using VICTOR™X5 plate reader (PerkinElmer).\nas §6"}, "[8]": {"test_system": "EGFR (h)", "assay_type": "biochemical, human", "protocol": "as §1, §4, §5"}, "[9]": {"test_system": "A549 (EGFR WT) NSCLC cells", "experiment": "Cell proliferation assay (MTS cell viability)", "assay_type": "cell-based", "details": "Homo sapiens, 72 h, 3 days of exposure", "protocol": "as §3\nA549 cells were maintained in Ham's F12K medium (Gibco) supplemented with 10% FBS, 100 units/mL penicillin, 100 units/mL streptomycin, and 2 mM glutamine.\nas §7\nIncubate for 3 days of exposure;\nas §8, §9, §10, §11, §12, §6"}, "[10]": {"test_system": "HCC827 (EGFR Del) NSCLC cells", "experiment": "Cell proliferation assay (MTS cell viability)", "assay_type": "cell-based", "details": "Homo sapiens, 72 h, 3 days of exposure", "protocol": "as §3, §7\nIncubate for 3 days of exposure;\nas §8, §9, §10, §11, §12, §6"}, "[11]": {"test_system": "lung cancer", "details": "all lung cancer patients, not selected for mutant EGFR; cited from earlier work"}, "[12]": {"details": "0.1 μM test compound, 10 μM ATP, remaining activity relative to DMSO control = 100%"}}, "note": "Like-named read-outs stand apart in the source and are kept apart here."}
{"compound": "C=CC(=O)Nc1cc(Nc2ncc(Cl)c(Nc3ccccc3C(=O)C(=O)N(C)C)n2)ccc1OC", "note": "[Example 65, N-(5-(5-chloro-4-(2-(2-(dimethylamino)-2-oxoacetyl)phenylamino)pyrimidin-2-ylamino)-2-methoxyphenyl)acrylamide]", "values": [{"measurement": "Activity (control) % EGFR (T790M) (h)", "setting": "[1]; [12]", "result": 80, "unit": "%"}, {"measurement": "activity against both activated and resistant T790M forms of EGFR in vitro cellular assays", "setting": "[2]", "result": "potent activity"}, {"measurement": "Activity (control) % EGFR (T790M, L858R) (h)", "setting": "[3]; [12]", "result": 25, "unit": "%"}, {"measurement": "Activity (control) % ALK (h)", "setting": "[4]", "result": 19, "unit": "%"}]}
{"compound": "C=CC(=O)Nc1cc(Nc2ncc(Cl)c(Nc3ccccc3C(=O)C(=O)N(C)C)n2)c(OC)cc1F", "note": "[Example 66, N-(5-(5-chloro-4-(2-(2-(dimethylamino)-2-oxoacetyl)phenylamino)pyrimidin-2-ylamino)-2-fluoro-4-methoxyphenyl)acrylamide]", "values": [{"measurement": "Activity (control) % EGFR (T790M) (h)", "setting": "[1]; [12]", "result": 66, "unit": "%"}, {"measurement": "activity against both activated and resistant T790M forms of EGFR in vitro cellular assays", "setting": "[2]", "result": "potent activity"}, {"measurement": "Activity (control) % EGFR (T790M, L858R) (h)", "setting": "[3]; [12]", "result": 24, "unit": "%"}, {"measurement": "Activity (control) % ALK (h)", "setting": "[4]", "result": 35, "unit": "%"}]}
{"compound": "C=CC(=O)Nc1ccc(OC)c(Nc2ncc(Cl)c(Nc3ccccc3C(=O)C(=O)N(C)C)n2)c1", "note": "[Example 67, N-(3-(5-chloro-4-(2-(2-(dimethylamino)-2-oxoacetyl)phenylamino)pyrimidin-2-ylamino)-4-methoxyphenyl)acrylamide]", "values": [{"measurement": "Activity (control) % EGFR (T790M) (h)", "setting": "[1]", "result": 50, "unit": "%"}, {"measurement": "activity against both activated and resistant T790M forms of EGFR in vitro cellular assays", "setting": "[2]", "result": "potent activity"}, {"measurement": "Activity (control) % EGFR (T790M, L858R) (h)", "setting": "[3]", "result": 9, "unit": "%"}, {"measurement": "Activity (control) % EGFR (L858R) (h)", "setting": "[5]", "result": 85, "unit": "%"}, {"measurement": "Activity (control) % ALK (h)", "setting": "[4]", "result": 13, "unit": "%"}]}
{"compound": "C=CC(=O)Nc1cc(Nc2ncc(Cl)c(Nc3ccccc3C(=O)C(=O)N(C)C)n2)c(OC)cc1N1CCN(C)CC1", "note": "[Example 74, N-(5-(5-chloro-4-(2-(2-(dimethylamino)-2-oxoacetyl)phenylamino)pyrimidin-2-ylamino)-4-methoxy-2-(4-methylpiperazin-1-yl)phenyl)acrylamide]", "values": [{"measurement": "IC50", "setting": "[6]", "result": 50, "unit": "nM"}, {"measurement": "Activity (control) % EGFR (T790M) (h)", "setting": "[1]", "result": 62, "unit": "%"}, {"measurement": "IC50", "setting": "[7]", "result": 50, "unit": "nM"}, {"measurement": "Activity (control) % EGFR (h)", "setting": "[8]", "result": 110, "unit": "%"}, {"measurement": "IC50", "setting": "[9]", "result": 620, "unit": "nM"}, {"measurement": "Activity (control) % ALK (h)", "setting": "[4]", "result": 9, "unit": "%"}, {"measurement": "IC50", "setting": "[10]", "result": 30, "unit": "nM"}]}
{"compound": "C=C(CN1CCOCC1)C(=O)Nc1cccc(Nc2ncc(Cl)c(Nc3ccccc3C(=O)C(=O)N(C)C)n2)c1", "note": "[Example 112, N-(3-(5-chloro-4-(2-(2-(dimethylamino)-2-oxoacetyl)phenylamino)pyrimidin-2-ylamino)phenyl)-2-(morpholinomethyl)acrylamide]", "values": [{"measurement": "Activity (control) % EGFR (T790M) (h)", "setting": "[1]; [12]", "result": 14, "unit": "%"}, {"measurement": "activity against both activated and resistant T790M forms of EGFR in vitro cellular assays", "setting": "[2]", "result": "potent activity"}, {"measurement": "Activity (control) % EGFR (T790M, L858R) (h)", "setting": "[3]; [12]", "result": 1, "unit": "%"}, {"measurement": "Activity (control) % EGFR (h)", "setting": "[8]; [12]", "result": 85, "unit": "%"}, {"measurement": "Activity (control) % EGFR (L858R) (h)", "setting": "[5]; [12]", "result": 66, "unit": "%"}, {"measurement": "Activity (control) % ALK (h)", "setting": "[4]", "result": 21, "unit": "%"}]}
{"compound": "COc1cc(Nc2ncc(Cl)c(Nc3ccccc3C(=O)C(=O)N(C)C)n2)ccc1N1CCC(N(C)C)CC1", "note": "[Example 118, 2-(2-(5-chloro-2-(4-(4-(dimethylamino)piperidin-1-yl)-3-methoxyphenylamino)pyrimidin-4-ylamino)phenyl)-N,N-dimethyl-2-oxoacetamide]", "values": [{"measurement": "Activity (control) % EGFR (T790M) (h)", "setting": "[1]", "result": 18, "unit": "%"}, {"measurement": "activity against both activated and resistant T790M forms of EGFR in vitro cellular assays", "setting": "[2]", "result": "potent activity"}, {"measurement": "Activity (control) % EGFR (T790M, L858R) (h)", "setting": "[3]", "result": 2, "unit": "%"}, {"measurement": "Activity (control) % EGFR (h)", "setting": "[8]", "result": 82, "unit": "%"}, {"measurement": "Activity (control) % EGFR (L858R) (h)", "setting": "[5]", "result": 29, "unit": "%"}, {"measurement": "Activity (control) % ALK (h)", "setting": "[4]", "result": 3, "unit": "%"}]}
{"compound": "C=CC(=O)Nc1cc(Nc2ncc(Cl)c(Nc3ccccc3C(=O)C(=O)N(C)C)n2)ccc1OC1CCOC1", "note": "(centres unmarked) [Example 124, N-(5-(5-chloro-4-(2-(2-(dimethylamino)-2-oxoacetyl)phenylamino)pyrimidin-2-ylamino)-2-(tetrahydrofuran-3-yloxy)phenyl)acrylamide]", "values": [{"measurement": "Activity (control) % EGFR (T790M) (h)", "setting": "[1]; [12]", "result": 78, "unit": "%"}, {"measurement": "Activity (control) % EGFR (T790M, L858R) (h)", "setting": "[3]; [12]", "result": 20, "unit": "%"}, {"measurement": "Activity (control) % EGFR (h)", "setting": "[8]; [12]", "result": 109, "unit": "%"}, {"measurement": "Activity (control) % EGFR (L858R) (h)", "setting": "[5]; [12]", "result": 100, "unit": "%"}, {"measurement": "Activity (control) % ALK (h)", "setting": "[4]", "result": 16, "unit": "%"}]}
{"compound": "C=C(CN(C)CCN(C)C)C(=O)Nc1ccc(OC)c(Nc2ncc(Cl)c(Nc3ccccc3C(=O)C(=O)N(C)C)n2)c1", "note": "[Example 126, N-(3-(5-chloro-4-(2-(2-(dimethylamino)-2-oxoacetyl)phenylamino)pyrimidin-2-ylamino)-4-methoxyphenyl)-2-(((2-(dimethylamino)ethyl)(methyl)amino)methyl)acrylamide]", "values": [{"measurement": "Activity (control) % EGFR (T790M) (h)", "setting": "[1]; [12]", "result": 5, "unit": "%"}, {"measurement": "Activity (control) % EGFR (T790M, L858R) (h)", "setting": "[3]; [12]", "result": 2, "unit": "%"}, {"measurement": "Activity (control) % EGFR (h)", "setting": "[8]; [12]", "result": 93, "unit": "%"}, {"measurement": "Activity (control) % EGFR (L858R) (h)", "setting": "[5]; [12]", "result": 47, "unit": "%"}, {"measurement": "Activity (control) % ALK (h)", "setting": "[4]", "result": 19, "unit": "%"}]}
{"compound": "C#Cc1cccc(Nc2ncnc3cc(OCCOC)c(OCCOC)cc23)c1", "note": "[erlotinib]", "values": [{"measurement": "likelihood of tumor shrinkage (response rate)", "setting": "[11]", "result": "8-10%"}, {"measurement": "median time to tumor progression", "setting": "[11]", "result": "approximately 2 months"}]}
